# According to US11008286B2, “Amino mercaptan compound and preparation method therefor and use thereof in protection against radiation” (Institute of Radiation Medicine Chinese Academy of Medical …, priority 2016, dated 2021):
# Values joined by “and” are separate entries in the source; they are usually repeats but may differ in a detail not shown here. Equal entries are not always repeated. Structures can show the parent of a compound that is named as a salt. Where two headings read alike, the source gives them in different places. Where a SMILES comes first, the peptide text is derived from it. [ ]: non-standard residue; d: D form.
# Tests used:
# C57 male mice [1] = assay type: in vivo; conditions: for Survival number/Test number: no irradiation, 30-day
# Protocol: Administration and grouping: Each group was intraperitoneally injected with one corresponding dose of amifostine. • Each group was intraperitoneally injected with one corresponding dose of Example 17 (IP).
# The 30-day survival rate of mice in each group was recorded.
# C57 male mice [2] = assay: Example D: protective effect on the hematopoietic system after 4Gy irradiation; assay type: in vivo; conditions: 800 mpk IP 30 min before 4Gy
# Description: The mice were sacrificed on the 15th day after the irradiation, followed by blood collection. Femoral bone marrow cells, spleen and thymus were weighed, and cells were extracted for detecting the peripheral white blood cell (WBC) count, peripheral red blood cell (RBC) count, peripheral hemoglobin (HGB) concentration, peripheral platelet (PLT) count, peripheral blood lymphocyte ratio (LY %), and peripheral blood neutrophil ratio (NE %).
# In addition, the number of leukocytes in bone marrow, ratio of hematopoietic stem cell (LSK) in bone marrow cells, ratio of hematopoietic progenitor cells (HPC) in bone marrow cells, ratio of CD34−LSK in bone marrow cells, and ratio of CD34+LSK in bone marrow cells were detected.
# The effects of irradiation on LSK intracellular reactive oxygen species (ROS) level and HPC intracellular ROS level were also detected.
# C57 male mice [3] = assay: Example E2: HE staining of small intestine on the 5th day after local abdominal irradiation; assay type: in vivo
# Protocol: In amifostine group, intraperitoneal injection was performed 30 min before the local abdominal irradiation at 16Gy, wherein amifostine was dissolved in normal saline, 365 mpk.
# In Example 4 group, intraperitoneal injection was performed 30 min before the local abdominal irradiation at 16Gy, wherein Example 4 was dissolved in normal saline, 517 mpk.
# The mice were sacrificed on the 5th day after the irradiation, and the small intestine was taken and sectioned for HE staining.
# C57 male mice [4] = assay: Example F: radiation pneumonia, HE staining of right lung on the 60th day after 17Gy X rays; assay type: in vivo
# Protocol: Administration and grouping: Mice were intraperitoneally injected with normal saline, Example 4 (400 mpk), and amifostine (200 mpk) respectively 30 min before irradiation, and the right lungs were irradiated at 17Gy by X rays. The right lungs were taken on the 60th day for HE staining (n=3):
# Two months after irradiation of the unilateral lung, the most important lung manifestation was radiation pneumonia. […] The alveolar structure of mice in the 17Gy group was changed, which was manifested as a large area of inflammatory infiltration of the lung (the blue dots were inflammatory cells), and the alveoli were filled with inflammatory cells.
# C57 male mice [5] = assay: Example G: effect of stereoisomerism on survival rate of mice under 7.5Gy irradiation; assay type: in vivo; conditions: 200 mg/kg IP 30 min before irradiation; for deaths: 9 mice per group
# Description: Laboratory animals: C57 male mice, 19-21 g, purchased from Beijing HFK Bioscience Co. Ltd., license number SCXK (Beijing), 9 mice in each group.
# C57 male mice [6] = conditions: for survival rates compared with amifostine: absorbed dose 6.8Gy and 7.2Gy
# Protocol: Laboratory animals: C57 male mice, 8-10 weeks old, 20-22 g, were divided into 4 groups, 5 or 10 or 15 or 20 or 25 mice in each group.
# Observation index: The death and weight of the mice were recorded, and the survival rate was calculated on the 30th day.
# [7] = cited from earlier work
# C57BL/6 mice = assay: Example A: 30-day survival of mice after whole-body 137Cs γ-ray irradiation; assay type: in vivo; conditions: 200 mg/kg intraperitoneally
# Protocol: Material: The gamma ray irradiation device is a ^137Cs irradiator, with a dose rate of 0.7Gy/min. C57BL/6 mice, male, weighing 21-22 g, purchased from Beijing HFK Bioscience Co. Ltd., certificate number SCXK (Beijing) 2014-0004, grouped as: no irradiation group, irradiation and blank solvent group, irradiation and administration group, with 5 mice in each group.
# The 30-day survival of the mice in each group was observed, the survival rates were calculated, the body weights were followed, and the organs and white blood cells of mice in each group were compared after 30 days.
# Results: At the same administration dose of the four compounds (200 mg/kg, one dose at 24 hours before irradiation and one dose at 30 minutes before irradiation), one-time whole body irradiation with 6.8Gy, 7.2Gy and 7.5Gy ^137Cs gamma rays was performed, respectively, compared with the radiation and blank solvent group. The 30-day survival rate of mice was 100% when compound 1 was used in the cases of irradiations of 6.8Gy and 7.2Gy, respectively. The effects of normal control group and compound 1, compound 2, compound 3 and compound 4 on organs and leukocytes in mice 30 days after irradiation with 7.2Gy are shown in FIG. 4. The effects of normal control group and compound 1 on organs and leukocytes in mice 30 days after irradiation with 6.8Gy and 7.5Gy, respectively, are shown in FIGS. 2 and 6.
# [8] = 15th day, vs irradiation control
# [9] = 6.8Gy, 200 mpk IP 30 min before irradiation, day 30
# [10] = 7.5Gy, 400 mpk IP 90 min before irradiation
# [11] = 7.5Gy, 800 mpk IP 90 min before irradiation
# 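Throughout, for survival rate compared with amifostine: mice aged 8-10 weeks, weighing 20-22 g, with deaths logged and survival rate computed on day 30.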
# 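Throughout, for survival rates compared with amifostine: mice aged 8-10 weeks, weighing 20-22 g, with deaths logged and survival rate computed on day 30.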
smiles,measurement,setting,value
"CNC(=O)[C@H](CS)NC(=O)[C@H](CS)NC(=O)[C@H](CS)NC [Example 4, (R)-3-mercapto-N—((R)-3-mercapto-1-(((R)-3-mercapto-1-(methylamino)-1-oxopropan-2-yl)amino)-1-oxopropan-2-yl)-2-(methylamino) propanamide trifluoroacetate]",Survival number/Test number,C57 male mice [1]; 400 mpk IP,10/10
same,Survival number/Test number,C57 male mice [1]; 600 mpk IP,5/5
same,Survival number/Test number,C57 male mice [1]; 800 mpk IP,10/10
same,Survival number/Test number,C57 male mice [1]; 900 mpk IP,10/10
same,Survival number/Test number,C57 male mice [1]; 1000 mpk IP,6/6 and 10/10
same,Survival number/Test number,C57 male mice [1]; 1100 mpk IP,8/10
same,Survival number/Test number,C57 male mice [1]; 1200 mpk IP,6/10
same,Survival number/Test number,C57 male mice [1]; 1600 mpk IP,3/10
same,Survival rate,"C57 male mice [1]; male, C57, mouse, in vivo, 1000 mg/kg, 30 day",100%
same,safety compared with amifostine,"C57 male mice [1]; mouse, in vivo",as safe as or even better than amifostine
same,number of leukocytes (WBC) in bone marrow,C57 male mice [2]; 15th day,increased by administration of Example 4 with significant difference
same,ratio of hematopoietic progenitor cells (HPC) in bone marrow cells (HPC %),C57 male mice [2]; 15th day,increased by administration of Example 4 with significant difference
same,ratio of hematopoietic stem cell (LSK) in bone marrow cells (LSK %),C57 male mice [2]; 15th day,increased by administration of Example 4 with significant difference
same,ratio of CD34+LSK in bone marrow cells,"C57 male mice [2]; 15th day, irradiation decreased CD34+LSK %",alleviated this abnormal differentiation with significant difference
same,ratio of CD34−LSK in bone marrow cells,"C57 male mice [2]; 15th day, irradiation increased CD34−LSK %",alleviated this abnormal differentiation with significant difference
same,peripheral blood neutrophil ratio (NE %),"C57 male mice [2]; 15th day, irradiation increased NE %",alleviated this abnormal differentiation with significant difference
same,peripheral blood lymphocyte ratio (LY %),"C57 male mice [2]; 15th day, irradiation reduced LY %",alleviated this abnormal differentiation with significant difference
same,peripheral red blood cell (RBC) count,C57 male mice [2]; [8],increased by administration of Example 4 with significant difference
same,peripheral white blood cell (WBC) count,C57 male mice [2]; [8],increased by administration of Example 4 with significant difference
same,HPC intracellular ROS level,C57 male mice [2]; bone marrow,reduced the ROS levels with significant difference
same,LSK intracellular reactive oxygen species (ROS) level,C57 male mice [2]; bone marrow,reduced the ROS levels with significant difference
same,intestinal villi structure (HE staining),C57 male mice [3]; 517 mpk IP 30 min before local abdominal irradiation at 16Gy,slight changes compared with the irradiation group
same,inflammatory cell infiltration of lung / incidence of radiation pneumonia,C57 male mice [4]; 400 mpk IP 30 min before 17Gy X rays to right lung,partially relieve inflammatory cell infiltration and reduce the incidence of radiation pneumonia
same,Survival number/Test number,C57 male mice [5],5/9
same,Survival rate,C57 male mice [5],approximately 56%
same,deaths,C57 male mice [5],(4 deaths)
same,Survival number/Test number,"C57 male mice [6]; 7.2Gy, 200 mpk IP, day 30",20/25
same,Survival rate,"C57 male mice [6]; 7.2Gy, 200 mpk IP, day 30",80%
same,Survival number/Test number,"C57 male mice [6]; 7.5Gy, 517 mpk IP",9/10
same,Survival rate,"C57 male mice [6]; 7.5Gy, 517 mpk IP",90%
same,Survival number/Test number,"C57 male mice [6]; 7.5Gy, 800 mpk IP",7/10
same,Survival rate,"C57 male mice [6]; 7.5Gy, 800 mpk IP",70%
same,Survival number/Test number,"C57 male mice [6]; 10Gy, 365 mpk IP",15/20
same,Survival rate,"C57 male mice [6]; 10Gy, 365 mpk IP",75%
same,Survival number/Test number,"C57 male mice [6]; 12.5Gy, 365 mpk IP",4/10
same,Survival rate,"C57 male mice [6]; 12.5Gy, 365 mpk IP",40%
same,survival rates compared with amifostine,C57 male mice [6],survival rates comparable to those using amifostine
same,survival rate compared with amifostine,"C57 male mice [6]; higher absorbed dose, as high as 12.5Gy",a survival rate equivalent to those using amifostine
"NCCCNCCSP(=O)(O)O [Amifostine, amifostine, reference compound]",Survival number/Test number,C57 male mice [1]; 400 mpk IP,5/5
same,Survival number/Test number,C57 male mice [1]; 600 mpk IP,5/5
same,Survival number/Test number,C57 male mice [1]; 800 mpk IP,3/5
same,Survival number/Test number,C57 male mice [1]; 1600 mpk IP,0/5
same,intestinal villi structure (HE staining),C57 male mice [3]; 365 mpk IP 30 min before local abdominal irradiation at 16Gy,slight changes compared with the irradiation group
same,inflammatory cell infiltration of lung / incidence of radiation pneumonia,C57 male mice [4]; 200 mpk IP 30 min before 17Gy X rays to right lung,partially relieve inflammatory cell infiltration and reduce the incidence of radiation pneumonia
same,Survival number/Test number,C57 male mice [6]; [9],5/5
same,Survival rate,C57 male mice [6]; [9],100%
same,Survival number/Test number,"C57 male mice [6]; 7.2Gy, 200 mpk IP, day 30",9/10 and 12/15 and 4/5 and 7/10 and 20/25
same,Survival rate,"C57 male mice [6]; 7.2Gy, 200 mpk IP, day 30",90% and 80% and 70%
same,Survival number/Test number,"C57 male mice [6]; 7.5Gy, 200 mpk IP, day 30",5/5 and 4/5 and 1/10
same,Survival number/Test number,"C57 male mice [6]; 7.5Gy, 365 mpk IP",10/10
same,Survival rate,"C57 male mice [6]; 7.5Gy, 365 mpk IP",100%
same,Survival number/Test number,"C57 male mice [6]; 10Gy, 517 mpk IP",15/20
same,Survival rate,"C57 male mice [6]; 10Gy, 517 mpk IP",75%
same,Survival number/Test number,"C57 male mice [6]; 12.5Gy, 517 mpk IP",5/10
same,Survival rate,"C57 male mice [6]; 12.5Gy, 517 mpk IP",50%
same,half-life,[7],7 min
"NC(=O)[C@H](CS)NC(=O)[C@@H](N)CS [Example 1, (R)-2-amino-N—((R)-1-amino-3-mercapto-1-oxopropan-2-yl)-3-mercaptopropanamide trifluoroacetate] (H-Cys-Cys-NH2)",30-day survival rate,C57BL/6 mice; 6.8Gy 137Cs γ rays whole body,100%
same,30-day survival rate,C57BL/6 mice; 7.2Gy 137Cs γ rays whole body,100%
same,Survival number/Test number,C57 male mice [5],1/9
same,Survival rate,C57 male mice [5],approximately 11%
same,deaths,C57 male mice [5],(8 deaths)
same,Survival number/Test number,"C57 male mice [6]; 7.2Gy, 200 mpk IP, day 30",6/10
same,Survival rate,"C57 male mice [6]; 7.2Gy, 200 mpk IP, day 30",60%
same,survival rates compared with amifostine,C57 male mice [6],survival rates comparable to those using amifostine
"NC(=O)[C@H](CS)NC(=O)[C@H](N)CS [Example 17, (S)-2-amino-N—((R)-1-amino-3-mercapto-1-oxopropan-2-yl)-3-mercaptopropanamide trifluoroacetate] (H-[dC]-Cys-NH2)",Survival number/Test number,C57 male mice [1]; 400 mpk IP,5/5
same,Survival number/Test number,C57 male mice [1]; 800 mpk IP,5/5
same,Survival number/Test number,C57 male mice [1]; 1600 mpk IP,4/5
same,Survival number/Test number,C57 male mice [6]; [9],5/5
same,Survival rate,C57 male mice [6]; [9],100%
same,Survival number/Test number,"C57 male mice [6]; 7.2Gy, 200 mpk IP, day 30",9/10
same,Survival rate,"C57 male mice [6]; 7.2Gy, 200 mpk IP, day 30",90%
same,Survival number/Test number,"C57 male mice [6]; 7.5Gy, 200 mpk IP, day 30",0/5
same,Survival rate,"C57 male mice [6]; 7.5Gy, 200 mpk IP, day 30",0%
same,Survival number/Test number,C57 male mice [6]; [10],0/5
same,Survival rate,C57 male mice [6]; [10],0%
same,Survival number/Test number,C57 male mice [6]; [11],0/5
same,Survival rate,C57 male mice [6]; [11],0%
same,survival rates compared with amifostine,C57 male mice [6],survival rates comparable to those using amifostine
